Biological target: T1, mutant G12C K-RAS (Homo sapiens, UniProt P01116, G12C)
T1 construct: made in house; host or cells: E. coli BL21
Test: covalent adduct formation (CAF) with mutant G12C K-RAS
Format: binding
Details: Table 6; 10 μM, 1 h
Method: Embodiments disclosed herein are further illustrated by the following examples in Tables 1-4 and the Examples hereinbelow. The Tables indicate the compound number, structure, the observed mass spectral molecular weight peak, and covalent adduct formation (CAF) with a mutant G12C K-RAS after 60 minutes at a concentration of 10 micromolar.

| Structure (SMILES) | % CAF @ 10 μM,1 h [%] |
| --- | --- |
| C=CC(=O)N1C[C@H](C)N(c2nc(=O)n3c4c(c(-c5ccc(F)cc5F)c(Cl)cc24)OC[C@@H]3CN2C[C@H]3CC[C@@H](C2)N3C)C[C@H]1C [Example 286, (3S)-7-((2S,5R)-4-acryloyl-2,5-dimethylpiperazin-1-yl)-9-chloro-10-(2,4-difluorophenyl)-3-(((1R,5S)-8-methyl-3,8-diazabicyclo[3.2.1]octan-3-yl)methyl)-2H-[1,4]oxazino[2,3,4-ij]quinazolin-5(3H)-one] | 91.6 |
| C=CC(=O)N1C[C@H](C)N(c2nc(=O)n3c4c(c(-c5ccc(F)cc5F)c(Cl)cc24)OC[C@H]3COC[C@H]2CCCN2C)C[C@H]1C [Example 287, (3R)-7-((2S,5R)-4-acryloyl-2,5-dimethylpiperazin-1-yl)-9-chloro-10-(2,4-difluorophenyl)-3-((((R)-1-methylpyrrolidin-2-yl)methoxy)methyl)-2H-[1,4]oxazino[2,3,4-ij]quinazolin-5(3H)-one] | 91.6 |
| C=CC(=O)N1C[C@H](C)N(c2nc(=O)n3c4c(c(-c5ccc(F)cc5F)c(Cl)cc24)OC[C@H]3CC2CCN(C)CC2)C[C@H]1C [Example 288, (3R)-7-((2S,5R)-4-acryloyl-2,5-dimethylpiperazin-1-yl)-9-chloro-10-(2,4-difluorophenyl)-3-((1-methylpiperidin-4-yl)methyl)-2H-[1,4]oxazino[2,3,4-ij]quinazolin-5(3H)-one] | 95.9 |
| C=CC(=O)N1CCN(c2nc(=O)n3c4c(c(-c5ccc(F)cc5F)cc(CC#N)c24)OCC3)CC1 [Example 289, 2-(7-(4-acryloylpiperazin-1-yl)-10-(2,4-difluorophenyl)-5-oxo-2,3-dihydro-5H-[1,4]oxazino[2,3,4-ij]quinazolin-8-yl)acetonitrile] | 13.5 |
| C=CC(=O)N1C[C@H](C)N(c2nc(=O)n3c4c(c(-c5ccc(F)cc5F)c(Cl)cc24)OC[C@@H]3CN2C[C@H]3CC[C@@H](C2)N3C2COC2)C[C@H]1C [Example 290, (3S)-7-((2S,5R)-4-acryloyl-2,5-dimethylpiperazin-1-yl)-9-chloro-10-(2,4-difluorophenyl)-3-(((1R,5S)-8-(oxetan-3-yl)-3,8-diazabicyclo[3.2.1]octan-3-yl)methyl)-2H-[1,4]oxazino[2,3,4-ij]quinazolin-5(3H)-one] | 92.6 |
| C=CC(=O)N1C[C@H](C)N(c2nc(=O)n3c4c(c(-c5ccc(F)cc5F)c(Cl)cc24)OC[C@H]3CN2C[C@H]3CC[C@@H](C2)N3C2COC2)C[C@H]1C [Example 291, (3R)-7-((2S,5R)-4-acryloyl-2,5-dimethylpiperazin-1-yl)-9-chloro-10-(2,4-difluorophenyl)-3-(((1R,5S)-8-(oxetan-3-yl)-3,8-diazabicyclo[3.2.1]octan-3-yl)methyl)-2H-[1,4]oxazino[2,3,4-ij]quinazolin-5(3H)-one] | 88.8 |
| C=CC(=O)N1C[C@H](C)N(c2nc(=O)n3c4c(c(-c5ccc(F)cc5F)c(Cl)cc24)OC[C@H]3CC2(O)CCN(C)CC2)C[C@H]1C [Example 293, (3R)-7-((2S,5R)-4-acryloyl-2,5-dimethylpiperazin-1-yl)-9-chloro-10-(2,4-difluorophenyl)-3-((4-hydroxy-1-methylpiperidin-4-yl)methyl)-2H-[1,4]oxazino[2,3,4-ij]quinazolin-5(3H)-one] | 82.4 |
| C=CC(=O)N1C[C@H](C)N(c2nc(=O)n3c4c(c(-c5ccc(F)cc5F)c(Cl)cc24)OC[C@@H]3COC[C@@H]2CCCN2C)C[C@H]1C [Example 296, (3S)-7-((2S,5R)-4-acryloyl-2,5-dimethylpiperazin-1-yl)-9-chloro-10-(2,4-difluorophenyl)-3-((((S)-1-methylpyrrolidin-2-yl)methoxy)methyl)-2,3-dihydro-5H-[1,4]oxazino[2,3,4-ij]quinazolin-5-one] | 79.8 |
| C=CC(=O)N1C[C@H](C)N(c2nc(=O)n3c4c(c(-c5ccc(F)cc5F)c(Cl)cc24)OC[C@H]3COC2CCN(C)CC2)C[C@H]1C [Example 297, (3R)-7-((2S,5R)-4-acryloyl-2,5-dimethylpiperazin-1-yl)-9-chloro-10-(2,4-difluorophenyl)-3-(((1-methylpiperidin-4-yl)oxy)methyl)-2H-[1,4]oxazino[2,3,4-ij]quinazolin-5(3H)-one] | 90.5 |
| C=CC(=O)N1C[C@H](C)N(c2nc(=O)n3c4c(c(-c5ccc(F)cc5F)c(Cl)cc24)OC[C@H]3CCCN2CC(F)(F)C2)C[C@H]1C [Example 298, (3R)-7-((2S,5R)-4-acryloyl-2,5-dimethylpiperazin-1-yl)-9-chloro-3-(3-(3,3-difluoroazetidin-1-yl)propyl)-10-(2,4-difluorophenyl)-2,3-dihydro-5H-[1,4]oxazino[2,3,4-ij]quinazolin-5-one] | 68 |
| C=CC(=O)N1C[C@H](C)N(c2nc(=O)n3c4c(c(-c5ccc(F)cc5F)c(Cl)cc24)OC[C@H]3CCCN2CC3(COC3)C2)C[C@H]1C [Example 299, (3R)-3-(3-(2-oxa-6-azaspiro[3.3]heptan-6-yl)propyl)-7-((2S,5R)-4-acryloyl-2,5-dimethylpiperazin-1-yl)-9-chloro-10-(2,4-difluorophenyl)-2,3-dihydro-5H-[1,4]oxazino[2,3,4-ij]quinazolin-5-one] | 75.4 |
| C=CC(=O)N1C[C@H](C)N(c2nc(=O)n3c4c(c(-c5ccc(F)cc5F)c(Cl)cc24)OC[C@H]3CO[C@@H]2CCN(C)C2)C[C@H]1C [Example 302, (3R)-7-((2S,5R)-4-acryloyl-2,5-dimethylpiperazin-1-yl)-9-chloro-10-(2,4-difluorophenyl)-3-((((R)-1-methylpyrrolidin-3-yl)oxy)methyl)-2,3-dihydro-5H-[1,4]oxazino[2,3,4-ij]quinazolin-5-one] | 45.8 |
| C=CC(=O)N1CCN(c2nc(=O)n3c4c(c(-c5ccc(F)cc5F)c(Cl)cc24)OCC3)[C@@H](CO)C1 [Example 303, 7-((R)-4-acryloyl-2-(hydroxymethyl)piperazin-1-yl)-9-chloro-10-(2,4-difluorophenyl)-2,3-dihydro-5H-[1,4]oxazino[2,3,4-ij]quinazolin-5-one] | 15.4 |
| C=CC(=O)N1C[C@H](C)N(c2nc(=O)n3c4c(c(-c5ccc(F)cc5F)c(Cl)cc24)OC[C@@H]3CC2(O)CCN(C)CC2)C[C@H]1C [Example 304, (3S)-7-((2S,5R)-4-acryloyl-2,5-dimethylpiperazin-1-yl)-9-chloro-10-(2,4-difluorophenyl)-3-((4-hydroxy-1-methylpiperidin-4-yl)methyl)-2,3-dihydro-5H-[1,4]oxazino[2,3,4-ij]quinazolin-5-one] | 45.1 |
| C=CC(=O)N1C[C@H](C)N(c2nc(=O)n3c4c(c(-c5ccc(F)cc5F)c(Cl)cc24)OC[C@H]3CN(C(=O)[C@@H]2CCCN2C)C2CC2)C[C@H]1C [Example 307, (2S)-N-(((3R)-7-((2S,5R)-4-acryloyl-2,5-dimethylpiperazin-1-yl)-9-chloro-10-(2,4-difluorophenyl)-5-oxo-3,5-dihydro-2H-[1,4]oxazino[2,3,4-ij]quinazolin-3-yl)methyl)-N-cyclopropyl-1-methylpyrrolidine-2-carboxamide] | 51.1 |
| C=CC(=O)N1C[C@H](C)N(c2nc(=O)n3c4c(c(-c5ccc(F)cc5F)c(Cl)cc24)OC[C@@H]3CN(C(=O)[C@@H]2CCCN2C)C2CC2)C[C@H]1C [Example 310, (2S)-N-(((3S)-7-((2S,5R)-4-acryloyl-2,5-dimethylpiperazin-1-yl)-9-chloro-10-(2,4-difluorophenyl)-5-oxo-2,3-dihydro-5H-[1,4]oxazino[2,3,4-ij]quinazolin-3-yl)methyl)-N-cyclopropyl-1-methylpyrrolidine-2-carboxamide] | 53.4 |
| C=CC(=O)N1C[C@H](C)N(c2nc(=O)n3c4c(c(-c5ccc(F)cc5F)c(Cl)cc24)OC[C@H]3CCCN2C3CCC2CN(C)C3)C[C@H]1C [Example 311, (3R)-7-((2S,5R)-4-acryloyl-2,5-dimethylpiperazin-1-yl)-9-chloro-10-(2,4-difluorophenyl)-3-(3-(3-methyl-3,8-diazabicyclo[3.2.1]octan-8-yl)propyl)-2,3-dihydro-5H-[1,4]oxazino[2,3,4-ij]quinazolin-5-one] | 64.1 |
| C=CC(=O)N1C[C@H](C)N(c2nc(=O)n3c4c(c(-c5ccc(F)cc5F)c(Cl)cc24)OC[C@H]3CCCN2CC3CCC(C2)O3)C[C@H]1C [Example 312, (3R)-3-(3-(8-oxa-3-azabicyclo[3.2.1]octan-3-yl)propyl)-7-((2S,5R)-4-acryloyl-2,5-dimethylpiperazin-1-yl)-9-chloro-10-(2,4-difluorophenyl)-2,3-dihydro-5H-[1,4]oxazino[2,3,4-ij]quinazolin-5-one] | 68.2 |
| C=CC(=O)N1C[C@H](C)N(c2nc(=O)n3c4c(c(-c5ccc(F)cc5F)c(Cl)cc24)OC[C@H]3CCCN2C[C@H]3C[C@@H]2CO3)C[C@H]1C [Example 315, (3R)-3-(3-((1R,4R)-2-oxa-5-azabicyclo[2.2.1]heptan-5-yl)propyl)-7-((2S,5R)-4-acryloyl-2,5-dimethylpiperazin-1-yl)-9-chloro-10-(2,4-difluorophenyl)-2,3-dihydro-5H-[1,4]oxazino[2,3,4-ij]quinazolin-5-one] | 89.8 |
| C=CC(=O)N1C[C@H](C)N(c2nc(=O)n3c4c(c(-c5ccc(F)cc5F)c(Cl)cc24)OC[C@H]3CC2CCN(C3COC3)CC2)C[C@H]1C [Example 316, (3R)-7-((2S,5R)-4-acryloyl-2,5-dimethylpiperazin-1-yl)-9-chloro-10-(2,4-difluorophenyl)-3-((1-(oxetan-3-yl)piperidin-4-yl)methyl)-2H-[1,4]oxazino[2,3,4-ij]quinazolin-5(3H)-one] | 84.2 |
